# Measurements published in US11237156B2, “Method and composition for detection of peptide cyclization using protein tags” (Roche Sequencing Solutions, Inc., priority 2016, dated 2022).
# No end group written: not given here.
# Tests used:
# Cy3 anti-FLAG mouse mAB = test: Cyclization tag assay, anti-FLAG binding to peptide microarray; settings: cyclization tag compared with fragmented control
# From the text: (§1) With the matured linear protein tags at hand, the linear peptides were formed on a microarray where the tags were fragmented across the N- and C-terminus of the peptide such that upon cyclization, the complete protein tag is formed. The peptides were split around the low specificity position identified according to Examples 2 and 4 (position 6, for both tags), and that position was substituted with allyl-E (see FIG. 1). A flexible linker (Z) was inserted between the two peptide tag fragments to increase flexibility. Z was a 3:1 mixture of Gly:Ser. The linear peptide sequences are shown in Table 1 for the FLAG- and Myc-based sequenced in the row titled “Cyclization tag.” In addition to the cyclization tags, two controls were compared to each tag. The matured linear sequences identified according to Examples 2 and 4 (shown in Table 1 in the row titled “Linear control”) were formed on the microarray and tested as positive controls. […]
# (§2) Cy3 and Cy5 fluorescence intensity of the arrays was measured with MS200 scanner (Roche NimbleGen) at resolution 2 um, wavelength 532 nm or 635 nm, gain 25% and laser intensity 100%. […]
# Cy5 anti-Myc mouse mAB = test: Cyclization tag assay, anti-Myc binding to peptide microarray; settings: cyclization tag compared with fragmented control
# From the text: as §1, §2
# anti-Myc antibody = test: Myc sequence maturation binding assay (single substitutions, signal intensity)
# From the text: A fragmented protein tag was designed to be specific for the anti-Myc antibody near the N-terminus and C-terminus of the peptide tag, while having low specificity in the middle of the sequence to assist with attachment to a microarray surface through an amino acid side chain. It is to be understood that in some embodiments the amino acid attached to the microarray surface can be near either end of the peptide tag and not necessary closer to the middle of the peptide tag. […] A maturation of the Myc (EQKLISEEDLG (SEQ ID NO: 233)) tag was performed with the tag in the linear form. Each amino acid in the 11 mer peptide was substituted with each of the remaining 19 amino acids. As further described below, the process was repeated until the desired specificity at each position was achieved.
# Referring to FIG. 29, the initial Myc sequence (EQKLISEEDLG (SEQ ID NO: 233)) was modified at positions 1-11 and signal intensity (y-axis) was measured.
# streptavidin-Cy5 = streptavidin-Cy5 (Streptomyces avidinii, UniProt P22629); test: Streptavidin-Cy5 binding to cyclic/linear peptide microarray (fluorescence); settings: for cyclic fluorescent intensity: cyclic subarray
# Chain of streptavidin-Cy5 (P22629 25-183): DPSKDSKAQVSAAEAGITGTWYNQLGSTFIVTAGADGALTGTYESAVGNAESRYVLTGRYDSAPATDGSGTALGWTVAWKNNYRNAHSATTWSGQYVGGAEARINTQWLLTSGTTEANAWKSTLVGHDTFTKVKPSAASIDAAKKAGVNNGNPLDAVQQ
# Experimental: Slides were bound with […] streptavidin-Cy5 in 30 mL binding buffer for 30 minutes at room temperature. Binding buffer contained 1% alkali soluble casein and 0.05% tween-20 in 1×TBS, pH 7.4. After 30 minutes, slides were washed twice in 1×TBS buffer for 1 minute, water for 30 seconds, and spun to dryness.
# Cy5 fluorescence intensity of the arrays was measured with MS200 scanner (Roche NimbleGen) at resolution 2 um, wavelength 635 nm, gain 25% and laser intensity 100%. Cy5 signal intensities were extracted using Image Extraction Software (Roche NimbleGen). Data pre-processing, normalization and statistical tests were done in R. Data visualization and analysis were performed with Spotfire 6.5.0 (Tibco, Boston, Mass.) software platform.
# anti-FLAG antibody = test: FLAG-based sequence maturation binding assay (single substitutions, signal intensity); settings: for signal intensity after single mutation of the precursor sequence: linear tag on microarray, each position substituted with remaining 19 natural amino acids
# Experimental: A fragmented peptide tag was designed to be specific for the anti-FLAG antibody near the N-terminus and C-terminus of the peptide tag, while having low specificity in the middle of the sequence to assist with attachment to a microarray surface through an amino acid side chain. […] A maturation of the FLAG (GDYKDDDDKGG (SEQ ID NO: 232)) tag was performed with the tag in linear form. Each amino acid in the 11 mer peptide was individually substituted with each of the remaining 19 amino acids. As further described below, the process was repeated with modified sequences until the desired specificity at each position was achieved.
# Referring to FIG. 25, the initial FLAG sequence (GDYKDDDDKGG (SEQ ID NO: 232)) was modified at each of positions 1-11 individually with each of the remaining 19 natural amino acids, and signal intensity (y-axis) was measured.
# [1] = single substitution scan of the matured tag
# [2] = extension of HPQ-specific design, all J combinations of JXXHPQXXJU
substance,measurement,setting,value
"DQKGGZZZZWDYKD{allyl-E} (DQKGGXXXXWDYKDE; not fully specified (residue 15); printed as DQKGGZZZZWDYKD{allyl-E}; also: X6-X9: Gly or Ser mixture) [FLAG cyclization tag, fragmented FLAG-based tag on microarray, Z = 3:1 mixture of Gly:Ser, cyclized via allyl-E]",median fluorescence,Cy3 anti-FLAG mouse mAB,higher than that of the fragmented control peptides
"EEDWGZZZZEQKLI{allyl-E} (EEDWGXXXXEQKLIE; not fully specified (residue 15); printed as EEDWGZZZZEQKLI{allyl-E}; also: X6-X9: Gly or Ser mixture) [Myc cyclization tag, fragmented Myc-based tag on microarray, Z = 3:1 mixture of Gly:Ser, cyclized via allyl-E]",median fluorescence,Cy5 anti-Myc mouse mAB,higher than that of the fragmented control peptides
EQKLISEEDWG [L10W-Myc tag],signal intensity after single mutation of the precursor sequence,"anti-Myc antibody; linear tag on microarray, positions 1-11 modified",strongest increase in signal intensity
same,specificity by sequence position for the anti-Myc antibody,anti-Myc antibody; [1],strong specificity on the N-terminus (position 1-5) and moderate specificity on the C-terminus
LYDHPQNGGU (cyclo(LYDHPQNGGE); also: Glu10 surface-linked) [cylic LYDHPQNGGU],cyclic fluorescent intensity,streptavidin-Cy5; [2],highest cyclic intensity
NQpWU [cylic NQpWU],cyclic fluorescent intensity,streptavidin-Cy5; peptide library of format XXXXU,highest cyclic fluorescent intensity
QNDHPQNGGU (cyclo(QNDHPQNGGE); also: Glu10 surface-linked) [cyclic QNDHPQNGGU],log fold change (log FC) between cyclic and linear fluorescent intensity,"streptavidin-Cy5; extension of HPQ-specific design, JXXHPQXXJU",high log FC
same,cyclic fluorescent intensity,streptavidin-Cy5; [2],high cyclic intensity
WDYKDDDDKGG [G1W-FLAG tag],signal intensity after single mutation of the precursor sequence,anti-FLAG antibody,strongest increase in signal intensity
"WDYKDFDDKGG [G1W, D6F-FLAG tag, G1W-FLAG tag with position 6 mutated to phenylalanine]",signal intensity after single mutation of the precursor sequence,anti-FLAG antibody,strongest increase in signal intensity
"WDYKDFDQKGG [G1W, D6F, D8Q-FLAG tag, matured FLAG tag, position 8 mutated to glutamine]",specificity by sequence position for the anti-FLAG antibody,anti-FLAG antibody; [1],specificity for the anti-FLAG antibody on the N-terminus (position 1-4) and the C-terminus (position 7-8)
